# Data reported in patent US20110143993A1, “ENDOTHELIAL BASEMENT MEMBRANE TARGETING PEPTIDE LIGANDS” (The Brigham and Women's Hospital, Inc., priority 2009, published 2011).
# Assays:
# Matrigel [1] = test: Phage clone binding to Matrigel (anti-M13 ELISA, ABTS absorbance); conditions: ABTS absorbance 405 nm vs 490 nm, 10^10 p.f.u. per clone
# Method: 96-well plates were coated with 100 μL 1/50 dilutions of Matrigel in TBS overnight at 4° C., or TBS buffer only. Plates were blocked with 3% BSA/TBS for 2 h at RT and washed three times. 10^10 p.f.u. of each phage clone was added in 0.5% TBST in triplicate to either Matrigel or BSA-coated wells. Bound phage particles were detected with peroxidase-conjugated mouse anti-M13 monoclonal antibodies at 1/5000 dilution (Amersham Pharmacia Biotech, Piscataway, N.J.). After a 1 h incubation, the reaction was developed with 2,2′-azino-bis(3-ethylbenzthiazoline-6-sulphonic acid) (ABTS) (Amersham) and the absorbance was read at 405 nm against a reference wavelength of 490 nm with a SpectraMax Plus 384 Microplate reader (Molecular Devices, Sunnyvale, Calif.).
# Matrigel [2] = test: Sequence-specific competition binding of phage clones against synthetic peptide equivalents; conditions: synthetic peptide vs cognate phage on Matrigel, n=3
# Method: Matrigel-coated and blocked 96-well plates were incubated in triplicate with 10^−5-10^−10 M peptide concentrations and 10^9 pfu of phage in 100 μL 0.5% TEST. After 1 h at RT, bound phages were labeled with anti-M13 mAb and color was developed and detected using ABTS absorbance (405-490 nm). Peptide inhibition curves were normalized on a percentage scale to provide an estimate of the IC50, which was calculated using a dose-response curve fit using the Origin 8 data analysis software (Northampton, Mass.) by the formula:
# Y=Bottom+(Top−Bottom)/(1+10̂((Log IC50−X)*HillSlope)).
# collagen IV = test: Phage titer count analysis on collagen IV; assay type: binding, human; conditions: phage input 10^12/mL p.f.u., n=3
# Text: (§1) In a sequence-specific competition assay, the context-dependence of the phage towards the peptide-collagen IV binding interaction was investigated. […] The binding of phage C-11 was investigated in three independent titer count analyses. Phage titers of C-11 were compared against the library (R0) for binding to Matrigel and collagen IV with an initial phage input of 10^12/mL plaque forming units (p.f.u.).
# Matrigel [3] = test: Phage titer count analysis on Matrigel; assay type: binding; conditions: phage input 10^12/mL p.f.u., n=3
# Text: as §1
# in vivo = conditions: male, Swiss albino, mouse, in vivo, iv
# Method: (§2) Clinical monitoring over seven days was carried out for any signs of adverse effects.
# (§3) At the end of the study, animals were sacrificed by CO2 inhalation. Gross necropsy was performed and H&E sections of the major organs (liver, lung, heart, spleen, kidney, nerves) were examined for any signs of toxicity.
# Swiss albino mice = test: in vivo
# Method: as §2, §3
# [4] = Pharmacokinetic studies with 14C-paclitaxel or 3H-PLGA; design: species or system Sprague Dawley rats; conditions: male, Sprague Dawley, rat, in vivo
# Method: 12 male Sprague Dawley rats weighing approximately 250 g with bilateral jugular catheters were obtained from Charles River Laboratories (Wilmington, Mass.). […] 200-500 μL of blood was collected via the right catheter at 1, 3, 6, 9 and 24 h after injection (n=6). In a separate study to assess targeted lipid-polymeric nanoparticle polymer levels in circulation, 400 μl, of NPs synthesized with ^3H-PLGA was injected in saline (100 μCi/mL) and 100 μL of blood was collected at 1, 3, 6, 9, 24, 48, 96 and 120 h after injection (n=6). Blood radioactivity was quantified as disintegrations per minute (DPM) using the PerkinElmer Tri-Carb 2810TR liquid scintillation analyzer.
# Blood and tissue samples were processed as described by Chan J M, et al. Methods Mol. Biol. 2010; 624:163-175, with modifications. Solvable tissue solubilizer and Hionic-Fluor scintillation cocktail were purchased from PerkinElmer (Waltham, Mass.). All samples were weighed before processing. To prepare blood samples for radioisotope counting, 1.5 mL of tissue solubilizer was added to ≦0.5 mL blood and incubated at 55-60° C. for 2 h to dissolve the blood samples. Next, 50 μL of 0.5 mol/L EDTA-di-sodium salt solution was added to reduce foaming and 0.5 mL of hydrogen peroxide (300 g/L) was added dropwise with gentle agitation. Samples were further incubated at 55-60° C. for 1 h. To prepare tissue samples for radioisotope counting, kidney, spleen, liver, heart, and lung tissues (≦150 mg) were similarly processed, except with 4.0 mL of tissue solubilizer instead. Finally, 16 mL of Hionic-Fluor scintillation cocktail was added to both blood and tissue samples, and samples were subjected to temperature and light-adaptation for 1 h before counting. Sample radioactivity was read as disintegrations per minute (DPM) of either ^14C or ^3H radioisotopes using the PerkinElmer Tri-Carb 2810TR liquid scintillation analyzer, and standardized as DPM per gram of tissue or blood (DPM/g) based on the weight of the sample. […]
# [5] = 168 h after single i.v. dose, paclitaxel 10 mg/kg, targeted nanoparticles 35 mg/kg, mean ± SD n=6
compound,measurement,setting,value
"KIFVWPY [Clone A-9, heptapeptide from phage display against collagen IV; phage clone and synthetic peptide equivalent]",binding to Matrigel compared with the random library (R0),Matrigel [1],best candidates
same,IC50,Matrigel [2],551 nM
"KVWSLPQ [Clone A-8, heptapeptide from phage display against collagen IV; phage clone and synthetic peptide equivalent]",binding to Matrigel compared with the random library (R0),Matrigel [1],best candidates
same,IC50,Matrigel [2],1200 nM
"KIWKLPQ [Clone C-10, heptapeptide from phage display against collagen IV; phage clone and synthetic peptide equivalent]",binding to Matrigel compared with the random library (R0),Matrigel [1],best candidates
same,IC50,Matrigel [2],917 nM
"KLWVLPK [Clone C-11, heptapeptide from phage display against collagen IV; phage clone and synthetic peptide equivalent]",collagen IV binding compared to the library (phage titer),collagen IV,approximately 900 fold
same,Matrigel binding compared to the library (phage titer),Matrigel [3],approximately 300 fold
same,binding to Matrigel compared with the random library (R0),Matrigel [1],best candidates
same,IC50,Matrigel [2],117 nM
CC(=O)O[C@H]1C(=O)[C@@]2(C)[C@H]([C@H](OC(=O)c3ccccc3)[C@]3(O)C[C@H](OC(=O)[C@H](O)[C@@H](NC(=O)c4ccccc4)c4ccccc4)C(C)=C1C3(C)C)[C@]1(OC(C)=O)CO[C@@H]1C[C@@H]2O [paclitaxel],MTD,in vivo,10 mg/kg
same,hematological finding at day 7,"Swiss albino mice; 10 mg/kg, platelet count<400×10^9/L in two mice",signs of mild thrombocytopenia
same,lethality,"Swiss albino mice; 15 mg/kg dose, 1.2 mg/mL, mice i.v.",immediate death of two mice
same,"ALP, alkaline phosphatase",Swiss albino mice; [5],41.7 ± 1.77 U/L
same,"Baso, basophils",Swiss albino mice; [5],0.140 ± 0.078%
same,"Eo, eosinophils",Swiss albino mice; [5],0.0023 ± 0.004%
same,"HGB, hemoglobin",Swiss albino mice; [5],8.81 ± 0.49 mmol/L
same,"LYMPH, lymphocytes",Swiss albino mice; [5],0.69 ± 0.13%
same,"MCH, mean cell hemoglobin",Swiss albino mice; [5],17.1 ± 0.679 pg
same,MCHC,Swiss albino mice; [5],17.9 ± 0.47 mmol/L
same,"MCV, mean cell volume",Swiss albino mice; [5],59.5 ± 1.55 fL
same,"Mono, monocytes",Swiss albino mice; [5],0.167 ± 0.064%
same,"NEUT, neutrophils",Swiss albino mice; [5],0.002 ± 0.002%
same,"PLT, platelets",Swiss albino mice; [5],1026 ± 533 ×10^9/L
same,"RBC, red blood cells",Swiss albino mice; [5],8.30 ± 0.598 ×10^12/L
same,"WBC, white blood cells",Swiss albino mice; [5],2.05 ± 0.454 ×10^9/L
same,"ALT, alanine aminotransferase","Swiss albino mice; mouse, in vivo",61.01 ± 6.10 U/L
same,"AST, aspartate aminotransferase","Swiss albino mice; mouse, in vivo",119.83 ± 8.23 U/L
same,time after which levels in circulation could not be further detected,[4],24 h
same,"t1/2α (h), half-life of distribution phase",[4]; iv,0.64 h
same,"t1/2β (h), half-life of elimination phase",[4]; iv,8.02 h
